In brackets after ≈: the same amount, converted by molar mass.
What was measured:
[1] = Compound was tested for cytotoxicity against HCMV (human cytomegalovirus) of HFF(human foreskin fibroblasts) cells by cytopathogenic effect (CPE) inhibition assay; assay type: cell-based; conditions: HFF (human foreskin fibroblast) cells
[2] = Compound was tested for cytotoxicity against HSV-1 (herpes simplex type-1) of HFF (human foreskin fibroblasts) cells by cytopathogenic effect (CPE) inhibition assay; assay type: cell-based; conditions: HFF (human foreskin fibroblast) cells
[3] = (§1) Compound was tested for cytotoxicity against HSV-2 (herpes simplex type-2) of HFF (human foreskin fibroblasts) cells; assay type: cell-based; conditions: HFF (human foreskin fibroblast) cells
[4] = (§2) Compound was tested for cytotoxicity against HSV-2 (herpes simplex type-2) of HFF (human foreskin fibroblasts) cells in different experiment; assay type: cell-based; conditions: HFF (human foreskin fibroblast) cells
[5] = Compound was tested for cytotoxicity against HSV-2 (herpes simplex type 2) of HFF (human foreskin fibroblasts) cells by cytopathogenic effect (CPE) inhibition assay; assay type: cell-based; conditions: HFF (human foreskin fibroblast) cells
[6] = Compound was tested for cytotoxicity against HSV-1 (herpes simplex type-1) of HFF (human foreskin fibroblasts) cells in different experiment; assay type: cell-based; conditions: HFF (human foreskin fibroblast) cells
[7] = Compound was tested for cytotoxicity against HSV-1 (herpes simplex type-1) of HFF (human foreskin fibroblasts) cells; assay type: cell-based; conditions: HFF (human foreskin fibroblast) cells
[8] = as §2; conditions: human alphaherpesvirus 2, HFF (human foreskin fibroblast) cells
[9] = as §1; conditions: human alphaherpesvirus 2, HFF (human foreskin fibroblast) cells

Compound | CC50 [1] [µg/mL] | CC50 [2] [µg/mL] | CC50 [3] [µg/mL] | CC50 [4] [µg/mL] | CC50 [5] [µg/mL] | CC50 [6] [µg/mL] | CC50 [7] [µg/mL] | CC50 [8] [µg/mL] | CC50 [9] [µg/mL]
Cc1cn([C@H]2C[C@H](O)[C@@]3(O)CC23)c(=O)[nH]c1=O (stereo not given in full) | 63.7 (≈ 267 µM) | > 100 | > 20 | > 20 | > 100 | > 20 | > 20 | – | –
Cc1cn([C@@]23CC2[C@H](O)[C@@H](O)C3)c(=O)[nH]c1=O (stereo not given in full) | – | – | – | – | – | > 20 | > 50 | > 20 | > 50
Nc1ncnc2c1ncn2[C@H]1C[C@H](O)[C@@]2(O)CC12 (stereo not given in full) | > 100 | > 100 | – | – | > 100 | – | – | – | –
Cc1cn(C2C[C@H](O)[C@@H](O)C2)c(=O)[nH]c1=O | – | – | – | > 10 | – | – | > 10 | – | –
O=c1ccn([C@H]2C[C@H](O)[C@@]3(O)CC23)c(=O)[nH]1 (stereo not given in full) | > 100 | > 100 | – | – | > 100 | – | – | – | –
Nc1nc(O)c2ncn([C@H]3C[C@H](O)[C@@]4(O)CC34)c2n1 (stereo not given in full) | 64.3 (≈ 244 µM) | > 100 | – | – | > 100 | – | – | – | –
Nc1ccn([C@H]2C[C@H](O)[C@@]3(O)CC23)c(=O)n1 (stereo not given in full) | 8.8 (≈ 39.4 µM) | 68 (≈ 305 µM) | – | – | 96 (≈ 430 µM) | – | – | – | –

— ChEMBL document CHEMBL1129644, “Nucleosides with a twist. Can fixed forms of sugar ring pucker influence biological activity in nucleosides and oligonucleotides?” (J Med Chem, 1996)
